The results in this text go back to US11466016B2, “Pharmaceutical compounds” (priority 2018, dated 2022).

Structures can show the parent of a compound that is named as a salt.

One test has as its target SHP2 (Homo sapiens (Human), UniProt Q06124). Briefly: SHP2 Biochemical Assay (DiFMUP conversion, pIRS1 activating peptide).
Settings: not given
The protocol:
SHP2 activity was monitored by measuring the conversion of the surrogate substrate 6,8-difluoromethylumbelliferyl phosphate (DiFMUP) to the fluorescent product, 6,8-difluoromethylumbelliferone (DiFMU).
SHP2 was pre-incubated with test compounds and the activating peptide pIRS1 (H2N-LN(pY)IDLDLV-(PEG)8-LST(pY)ASINFQK-amide) for 30 min, prior to addition of the […] (DiFMUP), (Thermo Fisher D6567). […] Rates of reaction were then measured over 30 min by monitoring fluorescence on a BMG Pherastar reader at excitation 360 nm/emission 450 nm. IC50 values were calculated from the normalized dose-response plots using four parameter logistic curve fit.
For the compound `Cc1noc(Cn2cc3c(Cl)c(-c4c[nH]c5nc(N6[C@@H]7CC[C@H]6C[C@@H](N)C7)cnc45)ccc3n2)n1` [Example 69, endo-8-(7-{4-chloro-2-[(3-methyl-1,2,4-oxadiazol-5-yl)methyl]-2H-indazol-5-yl}-5H-pyrrolo[2,3-b]pyrazin-3-yl)-8-azabicyclo[3.2.1]octan-3-amine, hydrochloride salt], the IC50 (usually the concentration needed to halve the response being measured) is 6.8 nM.

Staying with this test, now noted: DiFMUP substrate, 0.25 μM pIRS1 peptide, 30 min pre-incubation; average where more than one data point; read-out: SHP2 (IC50).
For `Cn1nc2ccc(-c3n[nH]c4nc(N5CCC(C)(N)CC5)c(CO)nc34)c(Cl)c2c1Cl` [Example 110, [6-(4-amino-4-methylpiperidin-1-yl)-3-(3,4-dichloro-2-methyl-2H-indazol-5-yl)-1H-pyrazolo[3,4-b]pyrazin-5-yl]methanol], the IC50 stood at 7 nM.
Same read-out and setting: the value for `Cc1nc2c(-c3ccc4ncc(N(C)C)nc4c3Cl)n[nH]c2nc1N1C2CCC1CNC2` [Example 137, 8-Chloro-7-(6-{3,8-diazabicyclo[3.2.1]octan-8-yl}-5-methyl-1H-pyrazolo[3,4-b]pyrazin-3-yl)-N,N-dimethylquinoxalin-2-amine] was 21 nM; that for `CN(C)c1cnc2ccc(-c3n[nH]c4nc(N5[C@H]6CC[C@@H]5[C@@H](F)[C@@H](N)C6)c(CO)nc34)c(Cl)c2n1` [Example 118, {6-[(1R,2S,3S,5S)-3-amino-2-fluoro-8-azabicyclo[3.2.1]octan-8-yl]-3-[5-chloro-3-(dimethylamino)quinoxalin-6-yl]-1H-pyrazolo[3,4-b]pyrazin-5-yl}methanol] was 5.3 nM.
Take `N[C@H]1C[C@@H]2CC[C@H]([C@H]1F)N2c1nc2[nH]nc(-c3ccc4ncc(N5CCC5)nc4c3Cl)c2nc1CO` [Example 150, {6-[(1R,2S,3S,5S)-3-amino-2-fluoro-8-azabicyclo[3.2.1]octan-8-yl]-3-[3-(azetidin-1-yl)-5-chloroquinoxalin-6-yl]-1H-pyrazolo[3,4-b]pyrazin-5-yl}methanol]: the IC50 is 15 nM.
In the case of `CN(C)C(=O)c1nc2ccc(-c3c[nH]c4nc(N5[C@@H]6CC[C@H]5C[C@@H](N)C6)cnc34)c(Cl)c2s1` [Example 59, 6-{3-[endo-3-amino-8-azabicyclo[3.2.1]octan-8-yl]-5H-pyrrolo[2,3-b]pyrazin-7-yl}-7-chloro-N,N-dimethyl-1,3-benzothiazole-2-carboxamide, hydrochloride salt], the half-maximal inhibitory concentration (IC50) worked out at 18 nM.
On the same count and under the same terms, the same measure for `N[C@H]1C[C@@H]2CC[C@H]([C@H]1F)N2c1nc2[nH]nc(-c3ccc4ncsc4c3Cl)c2nc1CO` [Example 114, {6-[(1R,2S,3S,5S)-3-amino-2-fluoro-8-azabicyclo[3.2.1]octan-8-yl]-3-(7-chloro-1,3-benzothiazol-6-yl)-1H-pyrazolo[3,4-b]pyrazin-5-yl}methanol]: 3 nM.
For `Cn1cc2c(Cl)c(-c3c[nH]c4nc(N5CC[C@@H](N)[C@H](F)C5)cnc34)ccc2n1` [Example 29, (3R,4R)-1-[7-(4-chloro-2-methyl-2H-indazol-5-yl)-5H-pyrrolo[2,3-b]pyrazin-3-yl]-3-fluoropiperidin-4-amine, hydrochloride salt], the half-inhibitory concentration (IC50) is 41 nM.
Same read-out and setting: the value for `Cn1cc2c(Cl)c(-c3c[nH]c4nc(N5[C@@H]6CCC[C@H]5C[C@@H](N)C6)cnc34)ccc2n1` [Example 6, endo-9-[7-(4-chloro-2-methyl-2H-indazol-5-yl)-5H-pyrrolo[2,3-b]pyrazin-3-yl]-9-azabicyclo[3.3.1]nonan-3-amine] was 9 nM; that for `Cn1nc2ccc(-c3n[nH]c4nc(N5[C@H]6CC[C@@H]5[C@@H](F)[C@@H](N)C6)c(CO)nc34)c(Cl)c2c1C#N` [Example 129, 5-{6-[(1R,2S,3S,5S)-3-amino-2-fluoro-8-azabicyclo[3.2.1]octan-8-yl]-5-(hydroxymethyl)-1H-pyrazolo[3,4-b]pyrazin-3-yl}-4-chloro-2-methyl-2H-indazole-3-carbonitrile] was 5 nM.
For the compound `Cn1nc2ccc(-c3c[nH]c4nc(N5[C@@H]6CC[C@H]5C[C@@H](N)C6)cnc34)c(Cl)c2c1C#N` [Example 62, 5-{3-[endo-3-amino-8-azabicyclo[3.2.1]octan-8-yl]-5H-pyrrolo[2,3-b]pyrazin-7-yl}-4-chloro-2-methyl-2H-indazole-3-carbonitrile], the IC50 came to 7.1 nM.
Still for that read-out and setting: the value for `N[C@H]1C[C@H]2CC[C@@H](C1)N2c1cnc2c(-c3ccc4nc(CO)sc4c3Cl)c[nH]c2n1` [Example 44, (6-{3-[endo-3-amino-8-azabicyclo[3.2.1]octan-8-yl]-5H-pyrrolo[2,3-b]pyrazin-7-yl}-7-chloro-1,3-benzothiazol-2-yl)methanol, hydrochloride salt] was 6.8 nM; that for `Cn1nc2ccc(-c3c[nH]c4nc(N5[C@@H]6CC[C@H]5C[C@H](N)C6)cnc34)c(Cl)c2c1Cl` [Example 41, exo-8-[7-(3,4-dichloro-2-methyl-2H-indazol-5-yl)-5H-pyrrolo[2,3-b]pyrazin-3-yl]-8-azabicyclo[3.2.1]octan-3-amine, hydrochloride salt] was 3.6 nM; that for `Cn1nc2ccc(-c3n[nH]c4nc(N5[C@@H]6CC[C@H]5[C@@H](F)[C@@H](N)C6)c(CO)nc34)c(F)c2c1Cl` [Example 87, {6-[(1S,2S,3S,5R)-3-amino-2-fluoro-8-azabicyclo[3.2.1]octan-8-yl]-3-(3-chloro-4-fluoro-2-methyl-2H-indazol-5-yl)-1H-pyrazolo[3,4-b]pyrazin-5-yl}methanol] was 8 nM.
On the same count and under the same terms, the value for `N[C@H]1C[C@H]2CC[C@@H](C1)N2c1cnc2c(-c3ccc4[nH]nc(Cl)c4c3Cl)c[nH]c2n1` [Example 54, endo-8-[7-(3,4-dichloro-1H-indazol-5-yl)-5H-pyrrolo[2,3-b]pyrazin-3-yl]-8-azabicyclo[3.2.1]octan-3-amine] was 10 nM; that for `Cn1cc2c(Cl)c(-c3c[nH]c4nc(N5[C@@H]6CC[C@H]5C[C@@](C)(N)C6)cnc34)ccc2n1` [Example 8, endo-8-[7-(4-chloro-2-methyl-2H-indazol-5-yl)-5H-pyrrolo[2,3-b]pyrazin-3-yl]-3-methyl-8-azabicyclo[3.2.1]octan-3-amine, methanesulfonic acid salt] was 17 nM.
Still for that read-out and setting: the value for `Cn1cnc2ccc(-c3c[nH]c4nc(N5CC[C@H](N)[C@H](F)C5)cnc34)c(Cl)c21` [Example 74, (3R,4S)-1-[7-(7-chloro-1-methyl-1H-1,3-benzodiazol-6-yl)-5H-pyrrolo[2,3-b]pyrazin-3-yl]-3-fluoropiperidin-4-amine] was 89 nM; that for `Cn1cc2c(Cl)c(-c3c[nH]c4nc(N5[C@@H]6CC[C@H]5[C@H](F)[C@@H](N)C6)cnc34)ccc2n1` [Example 65, (1S,2R,3S,5R)-8-[7-(4-chloro-2-methyl-2H-indazol-5-yl)-5H-pyrrolo[2,3-b]pyrazin-3-yl]-2-fluoro-8-azabicyclo[3.2.1]octan-3-amine] was 37 nM.
On to `CC(C)n1cc2c(Cl)c(-c3n[nH]c4nc(N5[C@H]6CC[C@@H]5[C@@H](F)[C@@H](N)C6)c(CO)nc34)ccc2n1` [Example 101, {6-[(1R,2S,3S,5S)-3-amino-2-fluoro-8-azabicyclo[3.2.1]octan-8-yl]-3-[4-chloro-2-(propan-2-yl)-2H-indazol-5-yl]-1H-pyrazolo[3,4-b]pyrazin-5-yl}methanol], for which the half-inhibitory concentration (IC50) came to 21 nM.
The same measure, in the same setting: the value for `CN(C)c1nc2ccc(-c3c[nH]c4nc(N5[C@@H]6CC[C@H]5C[C@@H](N)C6)cnc34)c(Cl)c2s1` [Example 18, 6-{3-[endo-3-amino-8-azabicyclo[3.2.1]octan-8-yl]-5H-pyrrolo[2,3-b]pyrazin-7-yl}-7-chloro-N,N-dimethyl-1,3-benzothiazol-2-amine, hydrochloride salt] was 13 nM.
Still for that read-out and setting: the value for `N[C@H]1C[C@H]2CC[C@@H](C1)N2c1cnc2c(-c3ccc4ncsc4c3Cl)c[nH]c2n1` [Example 13, endo-8-[7-(7-chloro-1,3-benzothiazol-6-yl)-5H-pyrrolo[2,3-b]pyrazin-3-yl]-8-azabicyclo[3.2.1]octan-3-amine, methanesulfonic acid salt] was 6.2 nM; that for `Cn1cc2c(Cl)c(-c3c[nH]c4nc(N5CC[C@@H](N)[C@@H](F)C5)cnc34)ccc2n1` [Example 32, (3S,4R)-1-[7-(4-chloro-2-methyl-2H-indazol-5-yl)-5H-pyrrolo[2,3-b]pyrazin-3-yl]-3-fluoropiperidin-4-amine, hydrochloride salt] was 56 nM; that for `Cc1nc2c(-c3ccc4nn(C)cc4c3Cl)n[nH]c2nc1N1CC[C@H](N)[C@H](F)C1` [Example 75, (3R,4S)-1-[3-(4-chloro-2-methyl-2H-indazol-5-yl)-5-methyl-1H-pyrazolo[3,4-b]pyrazin-6-yl]-3-fluoropiperidin-4-amine, hydrochloride] was 130 nM.
Still for that read-out and setting: the same measure for `CCn1cc2c(Cl)c(-c3c[nH]c4nc(N5[C@@H]6CC[C@H]5C[C@@H](N)C6)cnc34)ccc2n1` [Example 26, endo-8-[7-(4-chloro-2-ethyl-2H-indazol-5-yl)-5H-pyrrolo[2,3-b]pyrazin-3-yl]-8-azabicyclo[3.2.1]octan-3-amine, hydrochloride salt]: 14 nM; for “2-(5-{3-[endo-3-amino-8-azabicyclo[3.2.1]octan-8-yl]-5H-pyrrolo[2,3-b]pyrazin-7-yl}-3,4-dichloro-2H-indazol-2-yl)ethan-1-ol [Example 36]”: 6 nM.
Take `Cn1cc2c(Cl)c(-c3c[nH]c4nc(N5[C@@H]6CC[C@H]5C[C@H](N)C6)cnc34)ccc2n1` [Example 2, exo-8-[7-(4-chloro-2-methyl-2H-indazol-5-yl)-5H-pyrrolo[2,3-b]pyrazin-3-yl]-8-azabicyclo[3.2.1]octan-3-amine]: the IC50 stood at 8.1 nM.
